According to patent US20110172147A1, “NEUROPEPTIDE-2 RECEPTOR (Y-2R) AGONISTS” (priority 2009, published 2011):

What was measured:
Type in all cases: cell-based
Y1R = biological target: T1, Y1R (Homo sapiens, UniProt P25929); test: CaFlux Assay (FLIPR), Y1R
T1 sequence (P25929 1-384): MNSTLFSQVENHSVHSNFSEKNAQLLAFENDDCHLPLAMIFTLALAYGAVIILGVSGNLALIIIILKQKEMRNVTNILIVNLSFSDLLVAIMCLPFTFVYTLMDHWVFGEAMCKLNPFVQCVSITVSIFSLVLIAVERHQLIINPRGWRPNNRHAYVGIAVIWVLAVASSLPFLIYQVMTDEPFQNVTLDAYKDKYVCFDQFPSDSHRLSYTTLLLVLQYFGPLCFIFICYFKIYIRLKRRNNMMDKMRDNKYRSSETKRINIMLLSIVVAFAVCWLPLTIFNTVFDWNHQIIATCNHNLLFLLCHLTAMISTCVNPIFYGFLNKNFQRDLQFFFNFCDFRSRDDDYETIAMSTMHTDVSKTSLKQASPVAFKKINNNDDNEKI

Y4R = Y4R (Homo sapiens, UniProt P50391); test: CaFlux Assay (FLIPR), Y4R
Y5R = biological target: T2, Y5R (Homo sapiens, UniProt Q15761); test: CaFlux Assay (FLIPR), Y5R
T2 sequence (Q15761 1-445): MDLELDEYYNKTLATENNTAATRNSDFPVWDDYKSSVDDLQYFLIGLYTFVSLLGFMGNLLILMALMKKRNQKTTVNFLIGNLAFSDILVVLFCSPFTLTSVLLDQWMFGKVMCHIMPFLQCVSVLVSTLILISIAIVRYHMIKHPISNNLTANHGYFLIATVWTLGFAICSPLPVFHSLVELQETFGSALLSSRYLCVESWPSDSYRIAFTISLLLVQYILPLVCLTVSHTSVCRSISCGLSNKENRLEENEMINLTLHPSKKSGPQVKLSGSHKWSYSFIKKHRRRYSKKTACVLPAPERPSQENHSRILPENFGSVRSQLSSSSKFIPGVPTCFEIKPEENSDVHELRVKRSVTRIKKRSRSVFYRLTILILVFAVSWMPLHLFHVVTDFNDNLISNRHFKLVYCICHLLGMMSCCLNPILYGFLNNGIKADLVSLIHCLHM

hNPY2R [1] = biological target: T3, hNPY2R (Homo sapiens, UniProt P49146); test: cAMP Agonist Assay, HEK293/hNPY2R; set-up: expressed in transfected cells; host or cells: HEK293/hNPY2R (G418 selection)
T3 sequence (P49146 1-381): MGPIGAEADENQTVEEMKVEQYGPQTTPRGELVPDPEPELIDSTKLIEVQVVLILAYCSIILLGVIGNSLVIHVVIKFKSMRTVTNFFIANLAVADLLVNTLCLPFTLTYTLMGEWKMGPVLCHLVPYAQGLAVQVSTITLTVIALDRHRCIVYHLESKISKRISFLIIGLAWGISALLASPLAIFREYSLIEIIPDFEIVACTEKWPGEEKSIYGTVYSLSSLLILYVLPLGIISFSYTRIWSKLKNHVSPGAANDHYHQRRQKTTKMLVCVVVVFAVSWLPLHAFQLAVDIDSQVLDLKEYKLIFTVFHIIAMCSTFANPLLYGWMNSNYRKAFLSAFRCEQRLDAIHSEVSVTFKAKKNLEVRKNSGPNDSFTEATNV
Summary of the method: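 HEK293/hNPY2R cells (10,000/well, overnight) stimulated 30 min at room temperature with compound plus 5 μM forskolin and 0.5 mM IBMX (1.1% DMSO final). Lysate cAMP measured by competitive chemiluminescent ELISA (AP conjugate, CSPD substrate); quadruplicates.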

hNPY2R [2] = biological target: T3, hNPY2R; test: CaFlux Assay (FLIPR), Y2R; set-up: expressed in transfected cells; host or cells: HEK-293 stably transfected with G protein chimera Gαqi9
Summary of the method: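 Gαqi9-chimera HEK-293 stable lines; Calcium-3 dye load 1 h, 37 °C (HBSS, 20 mM HEPES, 5 mM probenecid); compound in HBSS/0.05% BSA/1% DMSO; FLIPR read every 1.5 s for 100 s; peak minus pre-addition baseline, % of max positive-control response.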

Chain of Y4R (P50391 whole entry): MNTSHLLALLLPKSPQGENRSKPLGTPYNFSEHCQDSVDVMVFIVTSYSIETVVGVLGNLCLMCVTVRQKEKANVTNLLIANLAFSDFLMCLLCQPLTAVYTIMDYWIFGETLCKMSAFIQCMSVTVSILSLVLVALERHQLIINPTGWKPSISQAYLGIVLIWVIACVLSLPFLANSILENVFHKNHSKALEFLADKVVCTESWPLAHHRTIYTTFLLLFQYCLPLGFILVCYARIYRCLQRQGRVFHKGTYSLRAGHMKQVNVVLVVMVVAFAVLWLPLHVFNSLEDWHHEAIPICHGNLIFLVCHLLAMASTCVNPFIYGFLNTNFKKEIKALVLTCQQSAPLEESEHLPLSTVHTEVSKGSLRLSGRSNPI

Structure (SMILES)	EC50 (Y1R) [nM]	EC50 (Y4R) [nM]	EC50 (Y5R) [nM]	EC50 (hNPY2R [1]) [nM]	EC50 (hNPY2R [2]) [nM]	Y5R FLIPR agonist character (partial agonist mark) (Y5R)
CCCCCCCCCCCCCCCC(=O)NCCCCCC(=O)N[C@H](C(=O)N[C@@H](CCCCNC(=O)CCOCCOCCOCCOCCOCCOCCOCCOCCOCCOCCOCCOCCOCCOCCOCCOC)C(=O)N1CCN(c2ccc3ncn(CC(=O)N[C@@H](CCCNC(N)=O)C(=O)N[C@@H](Cc4c[nH]cn4)C(=O)N[C@@H](Cc4ccc(O)cc4)C(=O)N[C@@H](CC(C)C)C(=O)N[C@@H](CC(N)=O)C(=O)N[C@@H](Cc4c[nH]c5ccccc45)C(=O)N[C@H](C(=O)N[C@H](C(=O)N[C@@H](CCCNC(=N)N)C(=O)N[C@@H](CCC(N)=O)C(=O)N(C)[C@@H](CCCNC(=N)N)C(=O)N[C@@H](Cc4ccc(O)cc4)C(N)=O)[C@@H](C)O)C(C)C)c(=O)c3c2)CC1)[C@@H](C)CC [Example 32]	> 6000	> 6000	4760	0.23	0.15	–
CCCCCCCCCCCCCCCCCCCC(=O)N[C@@H](CCC(=O)N[C@@H](CCC(=O)NCCCC[C@H](NC(=O)[C@@H](NC(=O)CCOCCOCCOCCOCCOCCOCCOCCOCCOCCOCCOCCOCCOCCOCCOCCOCCOCCOCCOCCOCCOCCOCCOCCOC)[C@@H](C)CC)C(=O)N1CCN(c2ccc3ncn(CC(=O)N[C@@H](CCCNC(=N)N)C(=O)N[C@@H](Cc4c[nH]cn4)C(=O)N[C@@H](Cc4ccc(O)cc4)C(=O)N[C@@H](CC(C)C)C(=O)N[C@@H](CC(N)=O)C(=O)N[C@@H](Cc4c[nH]c5ccccc45)C(=O)N[C@H](C(=O)N[C@H](C(=O)N[C@@H](CCCNC(=N)N)C(=O)N[C@@H](CCC(N)=O)C(=O)N(C)[C@@H](CCCNC(=N)N)C(=O)N[C@@H](Cc4ccc(O)cc4)C(N)=O)[C@@H](C)O)C(C)C)c(=O)c3c2)CC1)C(=O)O)C(=O)O [Example 26]	> 9000	> 9000	1920	0.1	0.01	P.A
CC[C@H](C)[C@H](NC(=O)CCCCCNC(=O)CCOCCOCCOCCOCCOCCOCCOCCOCCOCCOCCOCCOCCOCCOCCOCCOC)C(=O)N[C@@H](CCCCN)C(=O)N1CCN(c2ccc3ncn(CC(=O)N[C@@H](CCCNC(=N)N)C(=O)N[C@@H](Cc4c[nH]cn4)C(=O)N[C@@H](Cc4ccc(O)cc4)C(=O)N[C@@H](CC(C)C)C(=O)N[C@@H](CC(N)=O)C(=O)N[C@@H](Cc4c[nH]c5ccccc45)C(=O)N[C@H](C(=O)N[C@H](C(=O)N[C@@H](CCCNC(=N)N)C(=O)N[C@@H](CCC(N)=O)C(=O)N(C)[C@@H](CCCNC(=N)N)C(=O)N[C@@H](Cc4ccc(O)cc4)C(N)=O)[C@@H](C)O)C(C)C)c(=O)c3c2)CC1 [Example 19]	> 6000	> 6000	> 6000	0.26	0.424	–
CCCCCCCCCCCCCCCC(=O)NCCOCCNC(=O)CCC(=O)NCCCC[C@H](NC(=O)[C@@H](NC(=O)CCOCCOCCOCCOCCOCCOCCOCCOCCOCCOCCOCCOCCOCCOCCOCCOCCOCCOCCOCCOCCOCCOCCOCCOC)[C@@H](C)CC)C(=O)N1CCN(c2ccc3ncn(CC(=O)N[C@@H](CCCNC(=N)N)C(=O)N[C@@H](Cc4c[nH]cn4)C(=O)N[C@@H](Cc4ccc(O)cc4)C(=O)N[C@@H](CC(C)C)C(=O)N[C@@H](CC(N)=O)C(=O)N[C@@H](Cc4c[nH]c5ccccc45)C(=O)N[C@H](C(=O)N[C@H](C(=O)N[C@@H](CCCNC(=N)N)C(=O)N[C@@H](CCC(N)=O)C(=O)N(C)[C@@H](CCCNC(=N)N)C(=O)N[C@@H](Cc4ccc(O)cc4)C(N)=O)[C@@H](C)O)C(C)C)c(=O)c3c2)CC1 [Example 15]	> 5000	> 5000	248	0.06	0.084	P.A
CCCCCCCCCCCCCCCC(=O)NCCCCCC(=O)N[C@H](C(=O)N[C@@H](CCCCNC(=O)CCOCCOCCOCCOCCOCCOCCOCCOCCOCCOCCOCCOCCOCCOCCOCCOCCOCCOCCOCCOCCOCCOCCOCCOC)C(=O)N1CCN(c2ccc3ncn(CC(=O)N[C@@H](CCCNC(=N)N)C(=O)N[C@@H](Cc4c[nH]cn4)C(=O)N[C@@H](Cc4ccc(O)cc4)C(=O)N[C@@H](CC(C)C)C(=O)N[C@@H](CC(N)=O)C(=O)N[C@@H](Cc4c[nH]c5ccccc45)C(=O)N[C@H](C(=O)N[C@H](C(=O)N[C@@H](CCCNC(=N)N)C(=O)N[C@@H](CCC(N)=O)C(=O)N(C)[C@@H](CCCNC(=N)N)C(=O)N[C@@H](Cc4ccc(O)cc4)C(N)=O)[C@@H](C)O)C(C)C)c(=O)c3c2)CC1)[C@@H](C)CC [Example 34]	> 5000	> 5000	988	0.18	0.068	–
CCCCCCCCCCCCCCCCCCCC(=O)N[C@@H](CCC(=O)O)C(=O)N[C@@H](CCC(=O)O)C(=O)N[C@H](C(=O)N[C@@H](CCCCNC(=O)CCOCCOCCOCCOCCOCCOCCOCCOCCOCCOCCOCCOC)C(=O)N1CCN(c2ccc3ncn(CC(=O)N[C@@H](CCCNC(=N)N)C(=O)N[C@@H](Cc4c[nH]cn4)C(=O)N[C@@H](Cc4ccc(O)cc4)C(=O)N[C@@H](CC(C)C)C(=O)N[C@@H](CC(N)=O)C(=O)N[C@@H](Cc4c[nH]c5ccccc45)C(=O)N[C@H](C(=O)N[C@H](C(=O)N[C@@H](CCCNC(=N)N)C(=O)N[C@@H](CCC(N)=O)C(=O)N(C)[C@@H](CCCNC(=N)N)C(=O)N[C@@H](Cc4ccc(O)cc4)C(N)=O)[C@@H](C)O)C(C)C)c(=O)c3c2)CC1)[C@@H](C)CC [Example 46]	> 9000	> 9000	4580	0.29	0.214	–
CCCCCCCCCCCCCCCC(=O)NCCCCCC(=O)N[C@H](C(=O)N[C@@H](CCCCNC(=O)CCOCCOCCOCCOCCOCCOCCOCCOCCOCCOCCOCCOC)C(=O)N1CCN(c2ccc3ncn(CC(=O)N[C@@H](CCCNC(N)=O)C(=O)N[C@@H](Cc4c[nH]cn4)C(=O)N[C@@H](Cc4ccc(O)cc4)C(=O)N[C@@H](CC(C)C)C(=O)N[C@@H](CC(N)=O)C(=O)N[C@@H](Cc4c[nH]c5ccccc45)C(=O)N[C@H](C(=O)N[C@H](C(=O)N[C@@H](CCCNC(=N)N)C(=O)N[C@@H](CCC(N)=O)C(=O)N(C)[C@@H](CCCNC(=N)N)C(=O)N[C@@H](Cc4ccc(O)cc4)C(N)=O)[C@@H](C)O)C(C)C)c(=O)c3c2)CC1)[C@@H](C)CC [Example 31]	> 6000	> 6000	3510	0.37	0.111	–
CCCCCCCCCCCCCCCCCCCC(=O)N[C@@H](CCC(=O)O)C(=O)N[C@@H](CCC(=O)O)C(=O)N[C@H](C(=O)N[C@@H](CCCCNC(=O)CCOCCOCCOCCOCCOCCOCCOCCOCCOCCOCCOCCOCCOCCOCCOCCOCCOCCOCCOCCOCCOCCOCCOCCOC)C(=O)N1CCN(c2ccc3ncn(CC(=O)N[C@@H](CCCNC(=N)N)C(=O)N[C@@H](Cc4c[nH]cn4)C(=O)N[C@@H](Cc4ccc(O)cc4)C(=O)N[C@@H](CC(C)C)C(=O)N[C@@H](CC(N)=O)C(=O)N[C@@H](Cc4c[nH]c5ccccc45)C(=O)N[C@H](C(=O)N[C@H](C(=O)N[C@@H](CCCNC(=N)N)C(=O)N[C@@H](CCC(N)=O)C(=O)N(C)[C@@H](CCCNC(=N)N)C(=O)N[C@@H](Cc4ccc(O)cc4)C(N)=O)[C@@H](C)O)C(C)C)c(=O)c3c2)CC1)[C@@H](C)CC [Example 52]	> 9000	> 9000	4260	0.2	0.147	–
